# Laboratory results from patent US8147818B2, “Hepatitis C virus inhibitors” (Bristol-Myers Squibb Company, priority 2008, dated 2012).
# Tested on: HCV 1b-377-neo replicon cells
# Assay: HCV Replicon assay, HCV 1b-377-neo replicon cells
# Assay type: cell-based, HCV 1b genotype
# Conditions: Hepatitis C virus, read-out: EC50 against HCV 1b (Activity or Range)
# Experimental: An HCV Replicon assay was utilized in the present disclosure, and was prepared, conducted and validated as described in commonly owned PCT/US2006/022197 and in O'Boyle et. al. Antimicrob Agents Chemother. 2005 April; 49(4):1346-53.
# HCV 1b-377-neo replicon cells were used to test the currently described compound series as well as cells resistant to compound A containing a Y2065H mutation in NS5A (described in application PCT/US2006/022197). The compounds tested were determined to have more than 10-fold less inhibitory activity on cells containing the mutation than wild-type cells indicating a related mechanism of action between the two compound series. Thus, the compounds of the present disclosure can be effective to inhibit the function of the HCV NS5A protein and are understood to be as effective in combinations as previously described in application PCT/US2006/022197 and commonly owned WO/O4014852. Further, the compounds of the present disclosure can be effective against the HCV 1b genotype. It should also be understood that the compounds of the present disclosure can inhibit multiple genotypes of HCV. […] In one embodiment compounds of the present disclosure are active against the 1a, 1b, 2a, 2b, 3a, 4a, and 5a genotypes.
row,SMILES,EC50
1,COC(=O)N[C@H](C(=O)N1CCC[C@H]1c1ncc(-c2ccc(-c3ccc4c(c3)CCCc3[nH]c([C@@H]5CCCN5C(=O)[C@@H](NC(=O)OC)C(C)C)nc3-4)cc2)[nH]1)C(C)C [Example 22],0.005 nM
2,CCN(CC)[C@@H](C(=O)N1CCC[C@H]1c1nc2c([nH]1)CCCc1cc(-c3ccc(-c4[nH]c([C@@H]5CCCN5C(=O)[C@@H](c5ccccc5)N(CC)CC)nc4CC(F)(F)F)cc3)ccc1-2)c1ccccc1 [Example 22a.3],0.01 nM
3,COC(=O)N[C@H](C(=O)N(C)[C@@H](C)c1ncc(-c2ccc(-c3ccc4c(c3)CCCc3[nH]c([C@@H]5CCCN5C(=O)[C@@H](NC(=O)OC)C(C)C)nc3-4)cc2)[nH]1)C(C)C [Example 22e],0.003 nM
4,COC(=O)N[C@@H](C)C(=O)N1CCC[C@H]1c1ncc(-c2ccc(-c3ccc4c(c3)CCCc3[nH]c([C@@H]5CCCN5C(=O)[C@H](C)NC(=O)OC)nc3-4)cc2F)[nH]1 [Example 22g.2],0.02 nM
5,COC(=O)N[C@H](C(=O)N1CCC[C@H]1c1ncc(-c2ccc(-c3ccc4c(c3)CCCc3[nH]c([C@@H]5CCCN5C(=O)[C@@H](NC(=O)OC)C(C)C)nc3-4)cc2F)[nH]1)C(C)C [Example 22g],0.001 nM
6,COC(=O)N[C@H](C(=O)N1CCC[C@H]1c1ncc(-c2cccc(-c3ccc4c(c3)-c3nc([C@@H]5CCCN5C(=O)[C@@H](NC(=O)OC)C(C)C)[nH]c3CCC4)c2)[nH]1)C(C)C [Example 22j],14 nM
7,COC(=O)N[C@H](C(=O)N1CCC[C@H]1c1ncc(-c2ccc(-c3ccc4c(c3)Cc3nc([C@@H]5CCCN5C(=O)[C@@H](NC(=O)OC)C(C)C)[nH]c3CC4)cc2)[nH]1)C(C)C [Example 22p],0.16 nM

# Same assay, conditions: Hepatitis C virus, read-out: EC50 against HCV 1b (Activity or Range), range class
row,SMILES,EC50
1,CCN(CC)[C@@H](C(=O)N1CCC[C@H]1c1ncc(-c2ccc(-c3ccc4c(c3)CCCc3[nH]c([C@@H]5CCCN5C(=O)[C@@H](c5ccccc5)N(CC)CC)nc3-4)cc2)[nH]1)c1ccccc1 [Example 22.1],0.001 to 0.1 nM
2,COC(=O)N[C@@H](C)C(=O)N1CCC[C@H]1c1ncc(-c2ccc(-c3ccc4c(c3)CCCc3[nH]c([C@@H]5CCCN5C(=O)[C@H](C)NC(=O)OC)nc3-4)cc2)[nH]1 [Example 22.2],0.001 to 0.1 nM
3,COC(=O)N[C@@H](C(=O)N1CCC[C@H]1c1ncc(-c2ccc(-c3ccc4c(c3)CCCc3[nH]c([C@@H]5CCCN5C(=O)[C@H](NC(=O)OC)c5ccccc5)nc3-4)cc2)[nH]1)c1ccccc1 [Example 22.3],0.001 to 0.1 nM
4,COC(=O)N[C@@H](C(=O)N1CCC[C@H]1c1ncc(-c2ccc(-c3ccc4c(c3)OCCc3[nH]c([C@@H]5CCCN5C(=O)[C@H](NC(=O)OC)c5ccccc5)nc3-4)cc2)[nH]1)c1ccccc1 [Example 22a.1],0.001 to 0.1 nM
5,COC(=O)N[C@H](C(=O)N1CCC[C@H]1c1nc2c([nH]1)CCCc1cc(-c3ccc(-c4[nH]c([C@@H]5CCCN5C(=O)[C@@H](NC(=O)OC)C(C)C)nc4CC(F)(F)F)cc3)ccc1-2)C(C)C [Example 22a.2],0.001 to 0.1 nM
6,COC(=O)N[C@H](C(=O)N1CCC[C@H]1c1nc2c([nH]1)CCCc1cc(-c3ccc(-c4[nH]c([C@@H]5CCCN5C(=O)[C@@H](NC(=O)OC)C(C)C)nc4CCC(F)(F)F)cc3)ccc1-2)C(C)C [Example 22a.4],0.001 to 0.1 nM
7,CCN(CC)[C@@H](C(=O)N(C)[C@@H](C)c1nc2c([nH]1)CCCc1cc(-c3ccc(-c4cnc([C@@H]5CCCN5C(=O)[C@@H](c5ccccc5)N(CC)CC)[nH]4)cc3)ccc1-2)c1ccccc1 [Example 22b.1],0.001 to 0.1 nM
8,COC(=O)N[C@H](C(=O)N(C)[C@@H](C)c1nc2c([nH]1)CCOc1cc(-c3ccc(-c4cnc([C@@H]5CCCN5C(=O)[C@@H](NC(=O)OC)C(C)C)[nH]4)cc3)ccc1-2)C(C)C [Example 22b.2],0.001 to 0.1 nM
9,COC(=O)N[C@@H](C(=O)N(C)[C@@H](C)c1nc2c([nH]1)CCOc1cc(-c3ccc(-c4cnc([C@@H]5CCCN5C(=O)[C@H](NC(=O)OC)c5ccccc5)[nH]4)cc3)ccc1-2)c1ccccc1 [Example 22b.3],0.001 to 0.1 nM
10,CCN(CC)[C@@H](C(=O)N[C@@H](C)c1nc2c([nH]1)CCCc1cc(-c3ccc(-c4cnc([C@@H]5CCCN5C(=O)[C@@H](c5ccccc5)N(CC)CC)[nH]4)cc3)ccc1-2)c1ccccc1 [Example 22c.1],0.001 to 0.1 nM
11,CCN(CC)[C@@H](C(=O)N1[C@@H]2C[C@@H]2C[C@H]1c1ncc(-c2ccc(-c3ccc4c(c3)CCCc3[nH]c([C@@H]5C[C@H]6C[C@H]6N5C(=O)[C@@H](c5ccccc5)N(CC)CC)nc3-4)cc2)[nH]1)c1ccccc1 [Example 22c.3],0.001 to 0.1 nM
12,COC(=O)N[C@H](C(=O)N[C@@H](C)c1nc2c([nH]1)CCCc1cc(-c3ccc(-c4cnc([C@@H]5CCCN5C(=O)[C@@H](NC(=O)OC)C(C)C)[nH]4)cc3)ccc1-2)C(C)C [Example 22c],0.001 to 0.1 nM
13,COC(=O)N[C@H](C(=O)N[C@@H](C)c1ncc(-c2ccc(-c3ccc4c(c3)CCCc3[nH]c([C@H](C)NC(=O)[C@@H](NC(=O)OC)C(C)C)nc3-4)cc2)[nH]1)C(C)C [Example 22d],0.001 to 0.1 nM
14,COC(=O)N[C@H](C(=O)N[C@@H](C)c1ncc(-c2ccc(-c3ccc4c(c3)CCCc3[nH]c([C@@H]5CCCN5C(=O)[C@@H](NC(=O)OC)C(C)C)nc3-4)cc2)[nH]1)C(C)C [Example 22f],0.001 to 0.1 nM
15,CCN(CC)[C@@H](C(=O)N1CCC[C@H]1c1ncc(-c2ccc(-c3ccc4c(c3)CCCc3[nH]c([C@@H]5CCCN5C(=O)[C@@H](c5ccccc5)N(CC)CC)nc3-4)cc2F)[nH]1)c1ccccc1 [Example 22g.1],0.001 to 0.1 nM
16,COC(=O)N[C@H](C(=O)N1CCC[C@H]1c1ncc(-c2ccc(-c3ccc4c(c3)CCCc3[nH]c([C@@H]5CCCN5C(=O)[C@@H](NC(=O)OC)[C@@H](C)OC)nc3-4)cc2F)[nH]1)[C@H](C)OC [Example 22g.3],0.001 to 0.1 nM
17,CCN(CC)[C@@H](C(=O)N1CC(F)(F)C[C@H]1c1ncc(-c2ccc(-c3ccc4c(c3)CCCc3[nH]c([C@@H]5CCCN5C(=O)[C@@H](c5ccccc5)N(CC)CC)nc3-4)cc2)[nH]1)c1ccccc1 [Example 22h.1],0.001 to 0.1 nM
18,COC(=O)N[C@H](C(=O)N1CC(F)(F)C[C@H]1c1ncc(-c2ccc(-c3ccc4c(c3)CCCc3[nH]c([C@@H]5CCCN5C(=O)[C@@H](NC(=O)OC)C(C)C)nc3-4)cc2)[nH]1)C(C)C [Example 22h],0.001 to 0.1 nM
19,CCN(CC)[C@@H](C(=O)N1CCC[C@H]1c1ncc(-c2cccc(-c3ccc4c(c3)-c3nc([C@@H]5CCCN5C(=O)[C@@H](c5ccccc5)N(CC)CC)[nH]c3CCC4)c2)[nH]1)c1ccccc1 [Example 22j.1],1 to 99 nM
20,CCN(CC)[C@@H](C(=O)N1CCC[C@H]1c1nc2c([nH]1)CCCc1cc(-c3ccc4c(c3)CCCc3[nH]c([C@@H]5CCCN5C(=O)[C@@H](c5ccccc5)N(CC)CC)nc3-4)ccc1-2)c1ccccc1 [Example 22k.1],0.001 to 0.1 nM
21,COC(=O)N[C@H](C(=O)N1CCC[C@H]1c1nc2c([nH]1)CCCc1cc(-c3ccc4c(c3)CCCc3[nH]c([C@@H]5CCCN5C(=O)[C@@H](NC(=O)OC)C(C)C)nc3-4)ccc1-2)C(C)C [Example 22k],0.001 to 0.1 nM
22,CCN(CC)[C@@H](C(=O)N1CCC[C@H]1c1ncc(-c2ccc(-c3ccc4c(c3)CCCc3c-4nc([C@@H]4CCCN4C(=O)[C@@H](c4ccccc4)N(CC)CC)n3O)cc2)[nH]1)c1ccccc1 [Example 22n.1],0.001 to 0.1 nM
23,COC(=O)N[C@H](C(=O)N1CCC[C@H]1c1ncc(-c2ccc(-c3ccc4c(c3)CCCc3c-4nc([C@@H]4CCCN4C(=O)[C@@H](NC(=O)OC)C(C)C)n3O)cc2)[nH]1)C(C)C [Example 22n],0.001 to 0.1 nM
24,COC(=O)N[C@H](C(=O)N1CCC[C@H]1c1ncc(-c2ccc(-c3ccc4c(c3)CCc3[nH]c([C@@H]5CCCN5C(=O)[C@@H](NC(=O)OC)C(C)C)nc3C4)cc2)[nH]1)C(C)C [Example 22o],0.101 to 0.999 nM
25,CCN(CC)[C@@H](C(=O)N1CCC[C@H]1c1ncc(-c2ccc(-c3ccc4c(c3)CCCCc3c-4nc([C@@H]4CCCN4C(=O)[C@@H](c4ccccc4)N(CC)CC)n3O)cc2)[nH]1)c1ccccc1 [Example 22q.1],0.001 to 0.1 nM
26,COC(=O)N[C@H](C(=O)N1CCC[C@H]1c1ncc(-c2ccc(-c3ccc4c(c3)CCCCc3c-4nc([C@@H]4CCCN4C(=O)[C@@H](NC(=O)OC)C(C)C)n3O)cc2)[nH]1)C(C)C [Example 22q],0.001 to 0.1 nM
27,COC(=O)N[C@H](C(=O)N1CCC[C@H]1c1nc2c([nH]1)CCc1cc(-c3ccc(-c4[nH]c([C@@H]5CCCN5C(=O)[C@@H](NC(=O)OC)C(C)C)nc4CCC(F)(F)F)cc3)ccc1-2)C(C)C [Example 22r.1],0.001 to 0.1 nM
28,COC(=O)N[C@H](C(=O)N1[C@@H]2C[C@@H]2C[C@H]1c1ncc(-c2ccc(-c3ccc4c(c3)CCc3[nH]c([C@@H]5C[C@H]6C[C@H]6N5C(=O)[C@@H](NC(=O)OC)C(C)C)nc3-4)cc2)[nH]1)C(C)C [Example 22r.2],0.001 to 0.1 nM
29,CCN(CC)[C@@H](C(=O)N1[C@@H]2C[C@@H]2C[C@H]1c1ncc(-c2ccc(-c3ccc4c(c3)CCc3[nH]c([C@@H]5C[C@H]6C[C@H]6N5C(=O)[C@@H](c5ccccc5)N(CC)CC)nc3-4)cc2)[nH]1)c1ccccc1 [Example 22r.2a],0.001 to 0.1 nM
30,COC(=O)N[C@@H](C(=O)N1[C@@H]2C[C@@H]2C[C@H]1c1ncc(-c2ccc(-c3ccc4c(c3)CCc3[nH]c([C@@H]5C[C@H]6C[C@H]6N5C(=O)[C@H](NC(=O)OC)c5ccccc5)nc3-4)cc2)[nH]1)c1ccccc1 [Example 22r.2b],0.001 to 0.1 nM
